Entries after “also recorded” stand apart in the source; their conditions may differ.
Experiments:
Pdr5p [1] = biological target: T1, Pdr5p (Saccharomyces cerevisiae, UniProt P33302); conditions: at 100 μg/mL; cited from earlier work
T1 construct: AD/124567 cells in the exponential growth phase were harvested by centrifugation; endogenous in cells; host or cells: S. cerevisiae strain AD/124567 (PDR1-3; other MDR ABC transporter genes deleted)

strain AD/124567 [2] = experiment: Disk diffusion chemosensitization assay; assay type: cell-based, Saccharomyces cerevisiae; conditions: strain AD/124567, medium with 150 µg/mL fluconazole, 50 μg compound per disk, 48 h
Procedure: To evaluate the ability of the compounds in reversing the MDR phenotype of strain AD/124567, a chemosensitization assay was performed, with slight modifications. Briefly, YPD medium containing 150 µg/mL fluconazole was prepared with 1.5% agarose, and a cell suspension from AD/124567 was incorporated into molten medium (45 °C), reaching a final concentration of 2.4 × 10^6 yeasts/mL. Subsequently, 50 μg of each compound was applied to 6-milimeter Whatman 3MM® blotting paper disks (Sigma-Aldrich®, St. Louis, MO, USA), dried at 30 °C for 30 min, and placed on the solidified medium surface. The plates were incubated at 30 °C for 48 h, photographed, and the inhibition zones were measured. A fluconazole-free medium was also used to evaluate the effects of the compounds alone on yeast growth.

strain AD/124567 [3] = experiment: Checkerboard assay with fluconazole, strain AD/124567; assay type: cell-based, Saccharomyces cerevisiae
Procedure: (§1) Culture growth was measured using a microplate reader at 600 nm (Fluostar Optima, BMG Labtech, Offenburg, Germany). Growth inhibition was calculated as described in Section 2.3.
(§2) FICI ≤ 0.5 points to a synergic interaction, whereas 0.5 < FICI < 4.0 and FICI > 4 indicate indifferent and antagonistic interactions, respectively.

[4] = test system: fluconazole-resistant Candida albicans strain 95-142; experiment: Checkerboard assay with fluconazole, strain 95-142; assay type: cell-based; conditions: read-out: Fluconazole MIC a (alone)
Text: (§3) In this study, two S. cerevisiae mutant strains were used. Strain AD/124567 (genotype: MATα, PDR1-3, ura3, his1, Δyor1::hisG, Δsnq2::hisG, Δpdr10::hisG, Δpdr11::hisG, Δycf1::hisG, Δpdr3::hisG) overexpressed Pdr5p, but the genes of all other ABC transporters related to the MDR phenotype (Yor1p, Snq2p, Pdr10p, Pdr11p, and Ycf1p) were deleted. A second strain, AD/1234567, had all MDR related genes deleted, including PDR5 (genotype: MATα, PDR1-3, ura3, his1, Δyor1::hisG, Δsnq2::hisG, Δpdr5::hisG, Δpdr10::hisG, Δpdr11::hisG, Δycf1::hisG, Δpdr3::hisG). Therefore, this strain was highly sensitive to fluconazole. One fluconazole-resistant Candida albicans strain was also used in this study, namely, 95-142. This strain was isolated from the throat of a patient and identified by CHROMagar^TM and PCR. The isolate overexpressed CaCdr1p and CaCdr2p (the most important MDR transporters of C. albicans), and was kindly provided by Dr. Theodore White (University of Missouri, Kansas City, MO, USA).
as §1, §2

Pdr5p [5] = biological target: T1, Pdr5p; conditions: at 200 μM; cited from earlier work
[6] = test system: S. cerevisiae strain AD/124567 (overexpresses Pdr5p); experiment: Antifungal susceptibility test (microbroth dilution), strain AD/124567; assay type: cell-based, Saccharomyces cerevisiae; conditions: tested strains AD/1234567 and AD/124567, up to 100 μM
Text: as §3
The antifungal activity of the compounds was evaluated via a microbroth dilution method described by Niimi et al.. […] Culture growth was measured using a microplate reader at 600 nm (Fluostar Optima, BMG Labtech, Offenburg, Germany). […] Growth inhibition was calculated as follows: % Growth inhibition = (Absorbance of growth control − Absorbance of treated sample) × 100/Absorbance of growth control

Pdr5p [7] = biological target: T1, Pdr5p; experiment: Rhodamine 6G accumulation/efflux assay; assay type: cell-based; conditions: strain AD/124567 in the presence of glucose
Procedure: Efflux assays were performed as described by Reis de Sá et al. (2017). Briefly, AD/124567 cells in the exponential growth phase were harvested by centrifugation at 5000 rpm at room temperature for 5 min, and then washed twice with phosphate-buffered saline (PBS) (0.43 g of KH2PO4; 7.2 g of NaCl; 1.85 g of Na2HPO4; pH 7.2; 990 mL of distilled water). Cells were then resuspended in 10 mL of PBS and starved for 2 h at 4 °C. Subsequently, 10^7 cells/mL were incubated for 30 min at 30 °C with 15 μM R6G. After incubation, cells were washed twice with PBS and further incubated in the presence of the compounds, DMSO, and FK-506 (a classical inhibitor of ABC transporters) for 60 min at 30 °C. […] The supernatants were transferred to the wells of a 96-well polystyrene plate, and fluorescence was measured with a plate reader (Fluostar Optima, BMG Labtech, Offenburg, Germany) at 485 nm (excitation) and 538 nm (emission). To evaluate R6G efflux, fluorescence emitted by the dye in the extracellular milieu was measured. Thus, the fluorescence was directly related to extracellular R6G concentration, and then to Pdr5p activity. […] R6G efflux was calculated as follows: (2) % efflux = Fluorescence of treated sample × 100/Fluorescence of AD/124567 with glucose […]

T1 sequence (P33302 whole entry): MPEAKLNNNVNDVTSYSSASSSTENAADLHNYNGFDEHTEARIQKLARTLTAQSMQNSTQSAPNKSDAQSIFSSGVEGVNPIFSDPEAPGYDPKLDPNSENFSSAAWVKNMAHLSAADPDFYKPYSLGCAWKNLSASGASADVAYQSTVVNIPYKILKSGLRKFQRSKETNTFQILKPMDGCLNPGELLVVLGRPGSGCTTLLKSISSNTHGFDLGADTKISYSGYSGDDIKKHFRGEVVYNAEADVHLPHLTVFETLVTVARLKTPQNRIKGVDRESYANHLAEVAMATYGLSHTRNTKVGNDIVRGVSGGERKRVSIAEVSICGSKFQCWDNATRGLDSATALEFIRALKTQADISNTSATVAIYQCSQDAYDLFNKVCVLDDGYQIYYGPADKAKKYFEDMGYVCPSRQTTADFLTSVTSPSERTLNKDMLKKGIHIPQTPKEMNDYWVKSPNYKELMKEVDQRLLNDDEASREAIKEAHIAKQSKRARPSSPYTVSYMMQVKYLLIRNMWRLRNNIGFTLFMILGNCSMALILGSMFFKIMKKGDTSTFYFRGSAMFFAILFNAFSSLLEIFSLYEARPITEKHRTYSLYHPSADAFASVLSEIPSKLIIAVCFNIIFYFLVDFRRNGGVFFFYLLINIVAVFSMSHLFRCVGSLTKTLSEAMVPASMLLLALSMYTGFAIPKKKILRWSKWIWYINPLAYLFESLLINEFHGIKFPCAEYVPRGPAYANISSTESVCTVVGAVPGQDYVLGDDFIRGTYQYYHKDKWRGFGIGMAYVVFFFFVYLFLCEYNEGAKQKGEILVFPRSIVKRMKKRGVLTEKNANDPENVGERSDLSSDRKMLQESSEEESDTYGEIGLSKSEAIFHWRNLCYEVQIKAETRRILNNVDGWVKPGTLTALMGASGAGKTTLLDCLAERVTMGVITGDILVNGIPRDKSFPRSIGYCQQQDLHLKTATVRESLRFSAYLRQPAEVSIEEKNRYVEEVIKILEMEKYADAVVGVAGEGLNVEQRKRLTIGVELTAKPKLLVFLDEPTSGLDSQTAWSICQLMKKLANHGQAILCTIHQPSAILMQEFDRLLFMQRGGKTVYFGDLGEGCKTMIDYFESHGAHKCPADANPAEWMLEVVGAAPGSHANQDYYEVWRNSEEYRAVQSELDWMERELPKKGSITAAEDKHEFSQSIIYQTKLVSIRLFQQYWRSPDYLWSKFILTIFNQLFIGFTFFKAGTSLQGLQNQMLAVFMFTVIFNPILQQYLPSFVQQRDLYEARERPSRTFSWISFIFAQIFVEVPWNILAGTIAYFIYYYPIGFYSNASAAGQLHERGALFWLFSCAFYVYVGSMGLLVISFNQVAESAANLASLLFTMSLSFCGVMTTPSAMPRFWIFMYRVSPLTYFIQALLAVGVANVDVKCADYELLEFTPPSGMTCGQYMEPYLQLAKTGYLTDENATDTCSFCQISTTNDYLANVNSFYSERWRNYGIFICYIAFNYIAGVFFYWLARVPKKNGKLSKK

SMILES: CC1(C)CCC2=C(O1)c1ccccc1C(=O)C2=O [Beta-lapachone]
- Inhibition of Pdr5p activity (Pdr5p [1]): 79.4%

SMILES: C=CC[C@@H]1/C=C(\C)C[C@H](C)C[C@H](OC)[C@H]2O[C@@](O)(C(=O)C(=O)N3CCCC[C@H]3C(=O)O[C@H](/C(C)=C/[C@@H]3CC[C@@H](O)[C@H](OC)C3)[C@H](C)[C@@H](O)CC1=O)[C@H](C)C[C@@H]2OC [FK-506]
- Inhibition zone (strain AD/124567 [2]): 18 mm

SMILES: OC(Cn1cncn1)(Cn1cncn1)c1ccc(F)cc1F [Fluconazole]
- MIC (strain AD/124567 [3]; Saccharomyces cerevisiae, strain AD/124567, 80% growth inhibition, read-out: Fluconazole MIC a (alone)): 480 µg/mL
- MIC [4]: 62.5 µg/mL

SMILES: Nc1ncc(/C=C/CNC(=O)c2cc(Br)c(Br)[nH]2)[nH]1 [Oroidin]
- Inhibition of R6G efflux (Pdr5p [5]): 60%

SMILES: C[C@H]1O[C@@H](O[C@H]2[C@@H](O)C[C@H](O[C@H]3[C@@H](O)C[C@H](O[C@H]4CC[C@@]5(C)[C@H](CC[C@@H]6[C@@H]5C[C@@H](O)[C@]5(C)[C@@H](C7=CC(=O)OC7)CC[C@]65O)C4)O[C@@H]3C)O[C@@H]2C)C[C@H](O)[C@@H]1O [digoxin, Digoxin]
- Antifungal activity of the compound alone [6]: neither presented antifungal activity
- Interaction with fluconazole (qualitative) (strain AD/124567 [3]; S. cerevisiae, agar diffusion assay and checkerboard titration): indifferent to interaction with fluconazole
- Effect on R6G efflux / Pdr5p activity (qualitative) (Pdr5p [7]): unable to inhibit Pdr5p activity; also recorded: did not affect Pdr5p activity

Reference: paper PMC9330353 (Journal of Fungi, 2022)
